Data published in US11439667B2, “Compositions and methods for expansion of embryonic hematopoietic stem cells” (Fred Hutchinson Cancer Research Center, priority 2013, dated 2022).

Tests used:
[1] = system: mouse AGM VE-Cadherin+/CD45+ cells; assay: ex vivo expansion of AGM-derived embryonic HSPC, surface phenotype by FACS; assay type: cell-based; details: combined with Notch agonist (such as Delta1ext-IgG) and one or more growth factors
Description: Embryos were harvested from pregnant females at 9.5 to 11.5 dpc, dissected free of maternal tissue and washed extensively in PBS containing 10% fetal bovine serum (FBS). Embryo age was precisely time by counting somite numbers. Yolks sac was dissected free from the embryo. For AGM dissections, 30 gauge needles were used to remove the caudal and rostral portions of the embryo above the forelimbs and below the hindlimbs, and subsequently dissect off the dorsal somite tissue and ventral abdominal contents. The embryo was then splayed open lying on its dorsal surface and remaining tissues surrounding the urogenital ridges were further dissected, leaving the intact AGM containing the dorsal aorta centrally. For embryos prior to AGM stage (E9.5 or less), the P-Sp region was dissected by removing the rostral and caudal portions of the embryo. Dissected yolk sac or AGM/P-Sp tissues were pooled and treated with 0.25% collagenase (Stem Cell Technologies, Vancouver, Canada) for 25-30 minutes at 37° C., pipetted to single cell suspension, and washed with PBS containing 10% FBS. For Ly6a-eGFP transgenic embryos, dissected embryos were processed separately and pooled for sorting, if indicated, following confirmation of GFP expression. […]

ALK7 = target: T1, ALK7 (Homo sapiens, UniProt Q8NER5); details: cited from earlier work
T1 sequence (Q8NER5 21-493): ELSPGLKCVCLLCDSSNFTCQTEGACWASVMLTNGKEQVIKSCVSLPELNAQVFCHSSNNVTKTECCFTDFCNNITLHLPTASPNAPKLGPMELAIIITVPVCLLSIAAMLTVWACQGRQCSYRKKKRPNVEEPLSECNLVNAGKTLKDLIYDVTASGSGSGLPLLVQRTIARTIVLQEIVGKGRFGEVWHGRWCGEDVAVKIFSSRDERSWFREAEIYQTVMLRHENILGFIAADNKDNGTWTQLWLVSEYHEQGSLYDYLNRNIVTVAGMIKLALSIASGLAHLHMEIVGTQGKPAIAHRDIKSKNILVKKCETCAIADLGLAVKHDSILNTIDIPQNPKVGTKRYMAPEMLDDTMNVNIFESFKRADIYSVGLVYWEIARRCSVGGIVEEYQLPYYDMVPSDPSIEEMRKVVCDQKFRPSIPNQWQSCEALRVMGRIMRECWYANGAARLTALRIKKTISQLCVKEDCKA

human osteosarcoma cells = details: cited from earlier work
[2] = system: ESC-derived endothelial cells; details: cited from earlier work
human ESC = details: Wang C, et al. Cell Res. 2012; cited from earlier work

NC(=O)c1ccc(-c2nc(-c3ccc4c(c3)OCO4)c(-c3ccccn3)[nH]2)cc1 [SB431542, 4-[4-(1,3-benzodioxol-5-yl)-5-(2-pyridinyl)-1H-imidazol-2-yl]benzamide]
effect on expansion of the eHSC when combined with Notch agonist and growth factors [1]: additive and/or synergistic effect | inhibition of ALK7 (ALK7): potent and selective inhibitor | effect on TGF-β-induced proliferation of human osteosarcoma cells (human osteosarcoma cells): suppress | effect on proliferation, differentiation and sheet formation of ESC-derived endothelial cells [2]: stimulate | effect on general hematopoiesis from human ESC (human ESC): enhance general hematopoiesis, though not engrafting HSC
